From US5310559A, “Device for controlled release and delivery to mammalian tissue of pharmacologically active agents incorporating a rate controlling member which comprises an alkylene-alkyl acrylate copolymer” (Hercon Laboratories Corporation, priority 1992, dated 1994)

What was measured:
[1] = Flux through human skin from articles of FIG. 4 (Example V); conditions: reservoir 5% drug
[2] = even at higher clonidine concentrations
[3] = cited from earlier work
[4] = system of European Patent 186,071; cited from earlier work
[5] = Release of timolol from polymeric reservoir with and without ethylene-methyl acrylate membranes (Example IV); format: physicochemical
From the text: FIG. 11 is a graph of timolol release versus time (time versus accumulation) from an ADMEX® 760 reservoir without the use of a control membrane as set forth in Example IV. The graph indicated by reference numeral 111 is the graph of mg/cm^2 of timolol release versus hours. The basis of this graph is more specifically set forth in Example IV.
FIG. 13 is a series of graphs (time versus flux) of timolol release rate through control membranes consisting of copolymers of ethylene and methyl acrylate; 5% and 7% with 1.25 mils thickness and 2.5 mils thickness as more specifically set forth in Example IV. The graph indicated by reference numeral 130 is the graph for a membrane having 7% methyl acrylate repeating monomeric units and a membrane of thickness 1.25 mils. The graph indicated by reference numeral 131 is the graph for use of a membrane containing 5% methyl acrylate repeating monomeric units with a thickness of 1.25 mils. The graph indicated by reference numeral 132 is the graph for the use of a membrane containing 7% methyl acrylate repeating monomeric units and having a thickness of 2.5 mils. The graph indicated by reference numeral 133 is the graph for a membrane containing 5% methyl acrylate repeating monomeric units and having a thickness of 2.5 mils.

CC(C)(C)NCC(O)c1cc(Cl)c(N)c(Cl)c1 (centres unmarked) [CLENBUTEROL]
Flux Thru Human Skin ([1]; with membrane 1.25 mil EMA (11% MA)): 15.1 ug/cm^2 /day | Flux Thru Human Skin ([1]; without membrane, 35% PVC resin, 60% ADMEX 760): 34.5 ug/cm^2 /day

Clc1cccc(Cl)c1NC1=NCCN1 [clonidine]
effect of copolymeric EMA membranes on drug diffusion rates in the transdermal patch [2]: lower the drug diffusion rates in the transdermal patch even at higher clonidine concentrations | solubility in mineral oil [3]: approximately 0.5 mg/ml

CC(C)(C)NC[C@H](O)COc1nsnc1N1CCOCC1 [timolol]
irritation to the skin on transdermal application [4]: substantially no irritation to the skin | release of timolol from the reservoir through ethylene-methyl acrylate membranes ([5]; 5% and 7% methyl acrylate, 1.25 and 2.5 mils thickness): Relatively controlled and constant release of the drug was obtained for a period of seven days | release of timolol from a polymeric reservoir into an aqueous sink ([5]; in the absence of a membrane, ADMEX 760 reservoir): very high and followed typical first order kinetics | release behavior of timolol from a polymeric reservoir ([5]; use of ethylene methyl acrylate membranes): altered by the use of ethylene methyl acrylate membranes
